From ChEMBL document CHEMBL5036330, “Discovery of 8,9-seco-ent-Kaurane Diterpenoids as Potential Leads for the Treatment of Triple-Negative Breast Cancer” (J Med Chem, 2021)
pIC50: −log10 of the molar value. Calls of active or inactive are those of the source. The calls are words filed in the database; no cut-off is given here.

Legend:
MDA-MB-231 [1] = experiment: Cytotoxicity against human MDA-MB-231 cells assessed as reduction in cell viability incubated for 96 hrs by MTT method; type: functional, cell-based; settings: MDA-MB-231, 96 h
MDA-MB-468 [2] = experiment: Cytotoxicity against human MDA-MB-468 cells assessed as reduction in cell viability incubated for 96 hrs by MTT method; type: functional, cell-based; settings: MDA-MB-468, 96 h
MDA-MB-231 [3] = experiment: Induction of apoptosis in human MDA-MB-231 cells assessed as early apoptotic cells at 2 uM measured after 24 hrs by Annexin V/Propidium iodide stain based Flow cytometry (reference value: 3.34%); type: functional
MDA-MB-231 [4] = experiment: Induction of apoptosis in human MDA-MB-231 cells assessed as late apoptotic cells at 5 uM measured after 24 hrs by Annexin V/Propidium iodide stain based Flow cytometry (reference value: 2.78%); type: functional
MDA-MB-468 [5] = experiment: Induction of apoptosis in human MDA-MB-468 cells assessed as late apoptotic cells at 1 uM measured after 24 hrs by Annexin V/Propidium iodide stain based Flow cytometry (reference value: 3.98%); type: functional
MDA-MB-468 [6] = experiment: Induction of apoptosis in human MDA-MB-468 cells assessed as early apoptotic cells at 5 uM measured after 24 hrs by Annexin V/Propidium iodide stain based Flow cytometry (reference value: 7.98%); type: functional
MDA-MB-468 [7] = experiment: Anticancer activity in human MDA-MB-468 cells xenografted mouse model assessed as tumor growth inhibition at 10 mg/kg, ip treated for 33 days relative to control; type: functional, organism-based; settings: time 33.0 day
MDA-MB-231 [8] = experiment: Induction of cell cycle arrest in human MDA-MB-231 cells assessed as accumulation of cells at S phase at 1 uM measured after 24 hrs by flow cytometry (reference value: 32.2%); type: functional
MDA-MB-468 [9] = experiment: Induction of cell cycle arrest in human MDA-MB-468 cells assessed as accumulation of cells at G1 phase at 1 uM measured after 24 hrs by flow cytometry (reference value: 26.6%); type: functional
MDA-MB-468 [10] = experiment: Induction of cell cycle arrest in human MDA-MB-468 cells assessed as accumulation of cells at S phase at 1 uM measured after 24 hrs by flow cytometry (reference value: 46.9%); type: functional
MDA-MB-468 [11] = experiment: Induction of cell cycle arrest in human MDA-MB-468 cells assessed as accumulation of cells at G1 phase at 2 uM measured after 24 hrs by flow cytometry (reference value: 26.6%); type: functional
MDA-MB-468 [12] = experiment: Induction of cell cycle arrest in human MDA-MB-468 cells assessed as accumulation of cells at G2 phase at 2 uM measured after 24 hrs by flow cytometry (reference value: 26.5%); type: functional
MDA-MB-468 [13] = experiment: Induction of cell cycle arrest in human MDA-MB-468 cells assessed as accumulation of cells at S phase at 2 uM measured after 24 hrs by flow cytometry (reference value: 46.9%); type: functional
MDA-MB-231 [14] = experiment: Induction of mitochondrial depolarization in human MDA-MB-231 cells assessed as aggregates at 5 uM in dark by JC10 staining based fluorescence microscopy (reference value: 94.4%); type: functional
MDA-MB-468 [15] = experiment: Induction of mitochondrial depolarization in human MDA-MB-468 cells assessed as aggregates at 1 uM in dark by JC10 staining based fluorescence microscopy (reference value: 91.6%); type: functional
MDA-MB-468 [16] = experiment: Induction of mitochondrial depolarization in human MDA-MB-468 cells assessed as monomers at 1 uM in dark by JC10 staining based fluorescence microscopy (reference value: 8.4%); type: functional
MDA-MB-468 [17] = experiment: Induction of mitochondrial depolarization in human MDA-MB-468 cells assessed as monomers at 5 uM in dark by JC10 staining based fluorescence microscopy (reference value: 8.4%); type: functional
MDA-MB-468 [18] = experiment: Induction of apoptosis in human MDA-MB-468 cells assessed as decrease in Bcl2/Bax ratio at 1 to 5 uM measured after 24 hrs by Western blot analysis; type: functional, cell-based; settings: dose 1-5 µM
MDA-MB-231 [19] = experiment: Induction of autophagy in human MDA-MB-231 cells assessed as increase in ATG7 expression at 1 to 5 uM incubated for 24 hrs by Western blot analysis; type: functional, cell-based; settings: dose 1-5 µM
MDA-MB-231 [20] = experiment: Induction of autophagy in human MDA-MB-231 cells assessed as increase in LC3-II expression at 1 to 5 uM incubated for 24 hrs by Western blot analysis; type: functional, cell-based; settings: dose 1-5 µM
MDA-MB-231 [21] = experiment: Induction of autophagy in human MDA-MB-231 cells assessed as elimination of p62 at 1 to 5 uM incubated for 24 hrs by Western blot analysis; type: functional, cell-based; settings: dose 1-5 µM
MDA-MB-468 [22] = experiment: Induction of autophagy in human MDA-MB-468 cells assessed as increase in ATG7 expression at 1 to 5 uM incubated for 24 hrs by Western blot analysis; type: functional, cell-based; settings: dose 1-5 µM
MDA-MB-468 [23] = experiment: Induction of autophagy in human MDA-MB-468 cells assessed as increase in LC3-II expression at 1 to 5 uM incubated for 24 hrs by Western blot analysis; type: functional, cell-based; settings: dose 1-5 µM
MDA-MB-231 [24] = experiment: Antiinvasive activity against human MDA-MB-231 cells measured upto 72 hrs by transwell invasion assay relative to control; type: functional, cell-based; settings: dose 0.1-0.2 µM, time hrs <=72
MDA-MB-231 [25] = experiment: Inhibition of Akt phosphorylation in human MDA-MB-231 cells measured after 24 hrs by Western blot analysis; type: cell-based
MDA-MB-468 [26] = experiment: Inhibition of PI3K phosphorylation in human MDA-MB-468 cells measured at 1 to 5 uM after 24 hrs by Western blot analysis; type: cell-based; settings: dose 1-5 µM
MDA-MB-468 [27] = experiment: Effect on mTOR expression in human MDA-MB-468 cells measured at 1 to 5 uM after 24 hrs by Western blot analysis; type: functional, cell-based; settings: dose 1-5 µM
MDA-MB-468 [28] = experiment: Effect on PI3K expression in human MDA-MB-468 cells measured at 1 to 5 uM after 24 hrs by Western blot analysis; type: functional, cell-based; settings: dose 1-5 µM
[29] = molecular target: RAC-alpha serine/threonine-protein kinase (Homo sapiens) (UniProt P31749); experiment: Binding affinity to Akt1 in human MDA-MB-231 cells assessed as shifted melting curve at 2 uM by CETSA assay; type: cell-based
RAC-alpha serine/threonine-protein kinase (Homo sapiens), sequence (P31749 whole entry): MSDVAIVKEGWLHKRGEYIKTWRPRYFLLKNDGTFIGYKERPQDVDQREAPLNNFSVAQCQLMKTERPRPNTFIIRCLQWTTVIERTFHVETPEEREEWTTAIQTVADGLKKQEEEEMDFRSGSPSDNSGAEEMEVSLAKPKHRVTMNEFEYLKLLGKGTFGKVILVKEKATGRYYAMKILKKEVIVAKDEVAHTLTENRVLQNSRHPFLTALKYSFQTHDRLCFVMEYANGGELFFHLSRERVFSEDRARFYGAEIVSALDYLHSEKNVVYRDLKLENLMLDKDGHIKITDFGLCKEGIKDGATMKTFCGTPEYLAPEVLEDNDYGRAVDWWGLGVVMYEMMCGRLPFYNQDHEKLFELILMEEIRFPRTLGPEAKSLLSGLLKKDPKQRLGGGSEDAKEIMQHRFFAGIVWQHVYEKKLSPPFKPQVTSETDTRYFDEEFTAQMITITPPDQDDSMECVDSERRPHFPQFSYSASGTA

MDA-MB-468 [30] = experiment: Anticancer activity in human MDA-MB-468 cells xenografted mouse model assessed as reduction in tumor weight at 10 mg/kg, ip treated for 33 days; type: functional; settings: MDA-MB-468, ip, 792 h, time 33 day
MDA-MB-468 [31] = experiment: Anticancer activity in human MDA-MB-468 cells xenografted mouse model assessed as reduction in tumor volume at 10 mg/kg, ip treated for 33 days; type: functional; settings: MDA-MB-468, ip, 792 h, time 33 day
MDA-MB-231 [32] = experiment: Antitumor activity against human MDA-MB-231 cells xenografted in NOD/SCID mouse assessed as decrease in Ki67 expression in tumor tissue at 5 to 10 mg/kg, ip treated for 33 days by immunohistochemical analysis; type: functional, organism-based; settings: dose 5-10 mg/kg, time 33.0 day
MDA-MB-231 [33] = experiment: Antitumor activity against human MDA-MB-231 cells xenografted in NOD/SCID mouse assessed as increase in TUNEL expression in tumor tissue at 5 to 10 mg/kg, ip treated for 33 days by immunohistochemical analysis; type: functional, organism-based; settings: dose 5-10 mg/kg, time 33.0 day
MDA-MB-231 [34] = experiment: Antitumor activity against human MDA-MB-231 cells xenografted in NOD/SCID mouse assessed as increase in LC3B expression in tumor tissue at 5 to 10 mg/kg, ip treated for 33 days by immunohistochemical analysis; type: functional, organism-based; settings: dose 5-10 mg/kg, time 33.0 day
[35] = Selectivity index, ratio of IC50 for human LO2 cells to IC50 for human MBA-MB-231 cells; type: functional

C=C1C(=O)C2=C[C@H]1CCC(=O)[C@]1(C)[C@H](O)CCC(C)(C)[C@H]1C[C@H]2O
pIC50 (MDA-MB-231 [1]): 7.11 | pIC50 (MDA-MB-468 [2]): 7.15 | Activity (MDA-MB-231 [3]): 8.05% | Activity (MDA-MB-231 [4]): 28% | Activity (MDA-MB-468 [5]): 10.1% | Activity (MDA-MB-468 [6]): 21% | Activity (MDA-MB-468 [7]): Active | Activity (MDA-MB-231 [8]): 37% | Activity (MDA-MB-468 [9]): 14.3% | Activity (MDA-MB-468 [10]): 27.9% | Activity (MDA-MB-468 [11]): 14.3% | Activity (MDA-MB-468 [12]): 58.1% | Activity (MDA-MB-468 [13]): 27.6% | Activity (MDA-MB-231 [14]): 23.8% | Activity (MDA-MB-468 [15]): 61.6% | Activity (MDA-MB-468 [16]): 38.4% | Activity (MDA-MB-468 [17]): 86.6% | Activity (MDA-MB-468 [18]): Active | Activity (MDA-MB-231 [19]): Active | Activity (MDA-MB-231 [20]): Active | Activity (MDA-MB-231 [21]): Active | Activity (MDA-MB-468 [22]): Active | Activity (MDA-MB-468 [23]): Active | Activity (MDA-MB-231 [24]): Dose-Dependent Effect | inhibition (MDA-MB-231 [25]): Active | inhibition (MDA-MB-468 [26]): inactive | Activity (MDA-MB-468 [27]): inactive | Activity (MDA-MB-468 [28]): inactive | Activity [29]: Active | inhibition in vivo at 10 mg/kg (MDA-MB-468 [30]): 58% | inhibition in vivo at 10 mg/kg (MDA-MB-468 [31]): 44.8% | Activity (MDA-MB-231 [32]): Active | Activity (MDA-MB-231 [33]): Active | Activity (MDA-MB-231 [34]): Active | Selectivity Index [35]: >66.7
